Test results as given in ChEMBL document CHEMBL2440080, “Synthesis and biological evaluation of novel acylhydrazone derivatives as potential antitumor agents” (Bioorg Med Chem, 2013).

Tests used:
Type in all cases: functional
[1] = system: OVCAR-4; assay: Cytotoxicity against human OVCAR4 cells after 48 hrs by sulforhodamine B assay; conditions: OVCAR-4, 48 h
[2] = system: T47D; assay: Cytotoxicity against human T47D cells after 48 hrs by sulforhodamine B assay
[3] = system: CAKI-1; assay: Cytotoxicity against human CAKI-1 cells after 48 hrs by sulforhodamine B assay; conditions: CAKI-1, 48 h
[4] = system: KM12; assay: Cytotoxicity against human KM12 cells after 48 hrs by sulforhodamine B assay; conditions: KM12, 48 h
[5] = system: RXF 393; assay: Cytotoxicity against human RXF393 cells after 48 hrs by sulforhodamine B assay; conditions: RXF 393, 48 h
[6] = system: MOLT-4; assay: Cytotoxicity against human MOLT4 cells after 48 hrs by sulforhodamine B assay; conditions: MOLT-4, 48 h
[7] = system: NCI/ADR-RES; assay: Cytotoxicity against human NCI/ADR-RES cells after 48 hrs by sulforhodamine B assay
[8] = system: CCRF-CEM; assay: Cytotoxicity against human CCRF-CEM cells after 48 hrs by sulforhodamine B assay
[9] = system: OVCAR-3; assay: Cytotoxicity against human OVCAR3 cells after 48 hrs by sulforhodamine B assay; conditions: OVCAR-3, 48 h
[10] = system: UACC-62; assay: Cytotoxicity against human UACC62 cells after 48 hrs by sulforhodamine B assay; conditions: UACC-62, 48 h
[11] = system: U-251; assay: Cytotoxicity against human U251 cells after 48 hrs by sulforhodamine B assay; conditions: U-251, 48 h
[12] = system: PC-3; assay: Cytotoxicity against human PC3 cells after 48 hrs by sulforhodamine B assay; conditions: PC-3, 48 h
[13] = system: DU-145; assay: Cytotoxicity against human DU145 cells after 48 hrs by sulforhodamine B assay; conditions: DU-145, 48 h
[14] = system: HCT-15; assay: Cytotoxicity against human HCT15 cells after 48 hrs by sulforhodamine B assay; conditions: HCT-15, 48 h
[15] = system: BT-549; assay: Cytotoxicity against human BT549 cells after 48 hrs by sulforhodamine B assay; conditions: BT-549, 48 h
[16] = Cytotoxicity against human EKVX cells after 48 hrs by sulforhodamine B assay
[17] = system: HL-60(TB); assay: Cytotoxicity against human HL-60(TB) cells after 48 hrs by sulforhodamine B assay; conditions: HL-60, 48 h
[18] = system: ACHN; assay: Cytotoxicity against human ACHN cells after 48 hrs by sulforhodamine B assay
[19] = system: SNB-75; assay: Cytotoxicity against human SNB75 cells after 48 hrs by sulforhodamine B assay; conditions: SNB-75, 48 h
[20] = system: NCI-H322M; assay: Cytotoxicity against human NCI-H322M cells after 48 hrs by sulforhodamine B assay
[21] = system: M14; assay: Cytotoxicity against human M14 cells after 48 hrs by sulforhodamine B assay; conditions: M14, 48 h
[22] = system: RPMI-8226; assay: Cytotoxicity against human RPMI8226 cells after 48 hrs by sulforhodamine B assay; conditions: RPMI-8226, 48 h
[23] = system: HOP-92; assay: Cytotoxicity against human HOP92 cells after 48 hrs by sulforhodamine B assay; conditions: HOP-92, 48 h
[24] = system: SF-268; assay: Cytotoxicity against human SF268 cells after 48 hrs by sulforhodamine B assay; conditions: SF-268, 48 h
[25] = system: SF-295; assay: Cytotoxicity against human SF295 cells after 48 hrs by sulforhodamine B assay; conditions: SF-295, 48 h
[26] = system: TK-10; assay: Cytotoxicity against human TK10 cells after 48 hrs by sulforhodamine B assay; conditions: TK-10, 48 h
[27] = system: HCT-116; assay: Cytotoxicity against human HCT116 cells after 48 hrs by sulforhodamine B assay; conditions: HCT-116, 48 h
[28] = system: SR; assay: Cytotoxicity against human SR cells after 48 hrs by sulforhodamine B assay
[29] = system: OVCAR-8; assay: Cytotoxicity against human OVCAR8 cells after 48 hrs by sulforhodamine B assay; conditions: OVCAR-8, 48 h
[30] = system: IGROV-1; assay: Cytotoxicity against human IGROV1 cells after 48 hrs by sulforhodamine B assay; conditions: IGROV-1, 48 h
[31] = system: NCI-H460; assay: Cytotoxicity against human NCI-H460 cells after 48 hrs by sulforhodamine B assay; conditions: NCI-H460, 48 h
[32] = system: HOP-62; assay: Cytotoxicity against human HOP62 cells after 48 hrs by sulforhodamine B assay; conditions: HOP-62, 48 h
[33] = system: LOX IMVI; assay: Cytotoxicity against human LOXIMVI cells after 48 hrs by sulforhodamine B assay

Compound | GI50 [1] [µM] | GI50 [2] [µM] | GI50 [3] [µM] | GI50 [4] [µM] | GI50 [5] [µM] | GI50 [7] [µM] | GI50 [8] [µM] | GI50 [9] [µM] | GI50 [10] [µM] | GI50 [11] [µM] | GI50 [12] [µM] | GI50 [13] [µM] | GI50 [14] [µM] | GI50 [15] [µM] | GI50 [16] [µM] | GI50 [17] [µM] | GI50 [18] [µM] | GI50 [19] [µM] | GI50 [20] [µM] | GI50 [21] [µM] | further results
CCOc1cccc(/C=N/NC(=O)Cc2ccc(Nc3ccnc(C(F)(F)F)c3)cc2)c1O | 0.794 | 2.51 | 2.51 | 3.98 | 3.16 | 3.98 | 0.316 | 0.398 | 1.58 | 1.58 | 2 | 2 | 1 | 2.51 | 3.98 | 1 | 1.58 | 12.6 | 2.51 | 2 | GI50 [6]: 0.501 µM; GI50 [22]: 0.501 µM; GI50 [23]: 2 µM; GI50 [24]: 1.26 µM; GI50 [25]: 3.98 µM; GI50 [26]: 3.98 µM; GI50 [27]: 1.26 µM; GI50 [28]: 0.316 µM; GI50 [29]: 3.16 µM; GI50 [30]: 2.51 µM; GI50 [31]: 1.58 µM; GI50 [32]: 2.51 µM; GI50 [33]: 1.58 µM
O=C(Cc1ccc(Nc2ccnc(C(F)(F)F)c2)cc1)N/N=C/c1ccccc1O | 3.16 | 3.98 | 1 | 2 | 1.58 | 3.16 | 1.26 | 0.794 | 2 | 2 | 0.794 | 5.01 | 0.631 | 2.51 | 3.16 | 2.51 | 1.58 | 2 | 2.51 | 2 | GI50 [6]: 1 µM; GI50 [22]: 1 µM; GI50 [23]: 2.51 µM; GI50 [24]: 2.51 µM; GI50 [25]: 2.51 µM; GI50 [26]: 7.94 µM; GI50 [27]: 2 µM; GI50 [28]: 0.316 µM; GI50 [29]: 2.51 µM; GI50 [30]: 0.794 µM; GI50 [31]: 0.794 µM; GI50 [32]: 2.51 µM; GI50 [33]: 1 µM
O=C(N/N=C/c1ccc(O)cc1O)c1ccc(Nc2ccnc(C(F)(F)F)c2)cc1 | 0.0398 | 0.0794 | 0.0501 | > 100 | 12.6 | > 100 | 0.0316 | 0.0251 | 0.0501 | 0.0631 | 20 | 20 | > 100 | 0.01 | 6.31 | 12.6 | 31.6 | 3.98 | 0.0199 | > 100 | GI50 [22]: > 100 µM; GI50 [23]: 15.8 µM; GI50 [24]: 0.0398 µM; GI50 [25]: 0.01 µM; GI50 [26]: 0.0501 µM; GI50 [27]: 39.8 µM; GI50 [28]: > 100 µM; GI50 [29]: 3.16 µM; GI50 [30]: 15.8 µM; GI50 [31]: > 100 µM; GI50 [33]: 2.51 µM
CCOc1cccc(/C=N/NC(=O)c2ccc(Nc3ccnc(C(F)(F)F)c3)cc2)c1O | 0.794 | 1.58 | 0.631 | 1.58 | 0.398 | 3.16 | 0.501 | 0.316 | 0.794 | 1.58 | 0.398 | 3.98 | 0.631 | 1.58 | 1 | 1.26 | 1 | 0.631 | 1.26 | 1.26 | GI50 [6]: 0.251 µM; GI50 [22]: 0.398 µM; GI50 [23]: 0.631 µM; GI50 [24]: 1.26 µM; GI50 [25]: 1.26 µM; GI50 [26]: 2.51 µM; GI50 [27]: 0.398 µM; GI50 [28]: 0.251 µM; GI50 [29]: 0.631 µM; GI50 [30]: 0.501 µM; GI50 [31]: 0.501 µM; GI50 [32]: 1.26 µM; GI50 [33]: 0.631 µM
